{
  "source": "patent US20240246967A1",
  "about": "“AXL COMPOUNDS” (ARCUS BIOSCIENCES, INC., priority 2021, published 2024)",
  "key": {"[1]": {"molecular_target": "T1, Axl (Homo sapiens, UniProt P30530)", "T1 sequence (P30530 26-894)": "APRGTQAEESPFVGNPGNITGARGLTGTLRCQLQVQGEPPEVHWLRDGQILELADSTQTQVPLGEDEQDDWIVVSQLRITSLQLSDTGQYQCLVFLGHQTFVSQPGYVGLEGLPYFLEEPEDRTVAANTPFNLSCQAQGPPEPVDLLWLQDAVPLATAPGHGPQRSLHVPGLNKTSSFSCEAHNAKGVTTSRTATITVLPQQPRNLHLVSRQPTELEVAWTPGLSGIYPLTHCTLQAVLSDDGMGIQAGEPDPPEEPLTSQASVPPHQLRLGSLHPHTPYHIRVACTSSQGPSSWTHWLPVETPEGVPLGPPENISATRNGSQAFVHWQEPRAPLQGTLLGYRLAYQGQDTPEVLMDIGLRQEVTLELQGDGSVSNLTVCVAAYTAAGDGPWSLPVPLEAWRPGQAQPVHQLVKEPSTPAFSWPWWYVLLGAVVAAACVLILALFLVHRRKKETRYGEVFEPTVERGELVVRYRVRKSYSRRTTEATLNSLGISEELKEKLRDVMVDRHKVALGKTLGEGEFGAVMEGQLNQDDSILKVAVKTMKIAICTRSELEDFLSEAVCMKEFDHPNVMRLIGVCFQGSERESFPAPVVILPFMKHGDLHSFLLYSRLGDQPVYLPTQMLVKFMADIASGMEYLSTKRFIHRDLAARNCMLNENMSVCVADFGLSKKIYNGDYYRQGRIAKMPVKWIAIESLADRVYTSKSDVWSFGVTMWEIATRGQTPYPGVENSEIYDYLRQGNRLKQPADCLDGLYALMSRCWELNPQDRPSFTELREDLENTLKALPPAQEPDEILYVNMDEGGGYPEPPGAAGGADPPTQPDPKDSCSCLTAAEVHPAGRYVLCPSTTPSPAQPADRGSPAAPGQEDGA", "experiment": "Axl NanoBRET intracellular kinase assay (intracellular binding, Cell Binding)", "design": "host or cells: HEK-293", "conditions": "HEK-293 cells transfected with Axl-NanoLuc fusion vector; 0.35 μM K-5 NanoBRET tracer", "how_it_was_run": "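In intact HEK-293 cells transiently expressing NanoLuc-tagged Axl, compounds compete with the K-5 tracer (0.35 μM, 2 h, 37 °C) after a 1 h preincubation. Readout is the 610/450 nm emission ratio.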"}, "[2]": {"molecular_target": "T1, Axl", "experiment": "HTRF KinEASE-TK biochemical potency assay, AXL", "design": "purchased Invitrogen", "conditions": "5 nM AXL, 700 μM ATP, 800 nM TK Substrate-biotin", "how_it_was_run": "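Final conditions: 5 nM AXL, 1 nM TYRO3 or MER, 50 mM HEPES pH 7.4, 10 mM MgCl2, 0.01% BSA, 1 mM DTT, 700 μM ATP. Reaction ran 2 h at RT after 1 h preincubation with compound; HTRF signal read at 665/620 nm.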"}},
  "data": [
    {"smiles": "C[C@@H]1CCCN1C1CCc2ccc(-c3cnc4[nH]nc(-c5ccc(C(C)(C)O)c(Cl)c5)c4c3)cc2CC1", "note": "(stereo partly drawn) [Example 35, 2-(2-Chloro-4-(5-(7-((R)-2-methylpyrrolidin-1-yl)-6,7,8,9-tetrahydro-5H-benzo[7]annulen-2-yl)-1H-pyrazolo[3,4-b]pyridin-3-yl)phenyl)propan-2-ol]", "values": [
      {"measurement": "IC50", "setting": "[1]", "result": "< 100", "unit": "nM"},
      {"measurement": "IC50", "setting": "[2]", "result": "< 100", "unit": "nM"}
    ]},
    {"smiles": "C[C@@H]1CCCN1C1CCc2ccc(-c3cnc4[nH]nc(-c5ccc(S(C)(=O)=O)cc5)c4c3)cc2CC1", "note": "(stereo partly drawn) [Example 38, 5-(7-((R)-2-Methylpyrrolidin-1-yl)-6,7,8,9-tetrahydro-5H-benzo[7]annulen-2-yl)-3-(4-(methylsulfonyl)phenyl)-1H-pyrazolo[3,4-b]pyridine]", "values": [
      {"measurement": "IC50", "setting": "[1]", "result": "< 100", "unit": "nM"},
      {"measurement": "IC50", "setting": "[2]", "result": "< 100", "unit": "nM"}
    ]},
    {"smiles": "Cc1cc(-c2n[nH]c3ncc(-c4ccc5c(c4)CC[C@@H](N4CCCC4)CC5)cc23)cc(Cl)c1C(=O)N1CCNCC1", "note": "[Example 56, 1-(2-Chloro-6-methyl-4-{5-[(7S)-7-(pyrrolidin-1-yl)-6,7,8,9-tetrahydro-5H-benzo[7]annulen-2-yl]-1H-pyrazolo[3,4-b]pyridin-3-yl}benzoyl)piperazine]", "values": [
      {"measurement": "IC50", "setting": "[1]", "result": "< 100", "unit": "nM"},
      {"measurement": "IC50", "setting": "[2]", "result": "< 100", "unit": "nM"}
    ]},
    {"smiles": "C[C@@H]1CCCN1C1(C)CCc2ccc(-c3cnc4[nH]nc(-c5ccc(S(=O)(=O)C6CCC6)cc5)c4c3)cc2CC1", "note": "(stereo partly drawn) [Example 46, 3-(4-(Cyclobutylsulfonyl)phenyl)-5-(7-methyl-7-((R)-2-methylpyrrolidin-1-yl)-6,7,8,9-tetrahydro-5H-benzo[7]annulen-2-yl)-1H-pyrazolo[3,4-b]pyridine]", "values": [
      {"measurement": "IC50", "setting": "[1]", "result": "< 100", "unit": "nM"},
      {"measurement": "IC50", "setting": "[2]", "result": "< 100", "unit": "nM"}
    ]},
    {"smiles": "Cc1cc(-c2n[nH]c3ncc(-c4ccc5c(c4)CCN(C(=O)C(C)C)CC5)cc23)ccc1C(=O)N1CCNCC1", "note": "[Example 48, 2-Methyl-1-(7-{3-[3-methyl-4-(piperazine-1-carbonyl)phenyl]-1H-pyrazolo[3,4-b]pyridin-5-yl}-2,3,4,5-tetrahydro-1H-3-benzazepin-3-yl)propan-1-one]", "values": [
      {"measurement": "IC50", "setting": "[1]", "result": "100 to 1000", "unit": "nM"},
      {"measurement": "IC50", "setting": "[2]", "result": "< 100", "unit": "nM"}
    ]},
    {"smiles": "CC(C)(O)c1ccc(-c2n[nH]c3ncc(-c4ccc5c(c4)CCN(C4CCCC4)CC5)cc23)cc1C(F)(F)F", "note": "[Example 16, 2-{4-[5-(3-Cyclopentyl-2,3,4,5-tetrahydro-1H-3-benzazepin-7-yl)-1H-pyrazolo[3,4-b]pyridin-3-yl]-2-(trifluoromethyl)phenyl}propan-2-ol]", "values": [
      {"measurement": "IC50", "setting": "[1]", "result": "100 to 1000", "unit": "nM"},
      {"measurement": "IC50", "setting": "[2]", "result": "< 100", "unit": "nM"}
    ]},
    {"smiles": "COCCS(=O)(=O)c1ccc(-c2n[nH]c3ncc(-c4ccc5c(c4)CCC(C)(N4CCC[C@H]4C)CC5)cc23)cc1", "note": "(stereo partly drawn) [Example 111, (2R)-1-(2-{3-[4-(2-Methoxyethanesulfonyl)phenyl]-1H-pyrazolo[3,4-b]pyridin-5-yl}-7-methyl-6,7,8,9-tetrahydro-5H-benzo[7]annulen-7-yl)-2-methylpyrrolidine]", "values": [
      {"measurement": "IC50", "setting": "[1]", "result": "< 100", "unit": "nM"},
      {"measurement": "IC50", "setting": "[2]", "result": "< 100", "unit": "nM"}
    ]},
    {"smiles": "CC(C)(O)c1ccc(-c2n[nH]c3ncc(-c4ccc5c(c4)CCC(N4CCC[C@@H]4CO)CC5)cc23)cc1Cl", "note": "(stereo partly drawn) [Example 21, 2-[2-Chloro-4-(5-{7-[(2R)-2-(hydroxymethyl)pyrrolidin-1-yl]-6,7,8,9-tetrahydro-5H-benzo[7]annulen-2-yl}-1H-pyrazolo[3,4-b]pyridin-3-yl)phenyl]propan-2-ol]", "values": [
      {"measurement": "IC50", "setting": "[1]", "result": "< 100", "unit": "nM"},
      {"measurement": "IC50", "setting": "[2]", "result": "< 100", "unit": "nM"}
    ]},
    {"smiles": "C[C@@H]1CCCN1C1(C)CCc2ccc(-c3cnc4[nH]nc(-c5ccc(C(C)(C)O)nc5)c4c3)cc2CC1", "note": "(stereo partly drawn) [Example 22, 2-[5-(5-{7-Methyl-7-[(2R)-2-methylpyrrolidin-1-yl]-6,7,8,9-tetrahydro-5H-benzo[7]annulen-2-yl}-1H-pyrazolo[3,4-b]pyridin-3-yl)pyridin-2-yl]propan-2-ol]", "values": [
      {"measurement": "IC50", "setting": "[1]", "result": "< 100", "unit": "nM"},
      {"measurement": "IC50", "setting": "[2]", "result": "< 100", "unit": "nM"}
    ]},
    {"smiles": "CCS(=N)(=O)c1ccc(-c2n[nH]c3ncc(-c4ccc5c(c4)CCC(C)(N4CCC[C@H]4C)CC5)cc23)cc1", "note": "(stereo partly drawn) [Example 100, Ethyl(imino)[4-(5-{7-methyl-7-[(2R)-2-methylpyrrolidin-1-yl]-6,7,8,9-tetrahydro-5H-benzo[7]annulen-2-yl}-1H-pyrazolo[3,4-b]pyridin-3-yl)phenyl]-λ^6-sulfanone]", "values": [
      {"measurement": "IC50", "setting": "[1]", "result": "100 to 1000", "unit": "nM"},
      {"measurement": "IC50", "setting": "[2]", "result": "< 100", "unit": "nM"}
    ]}
  ]
}
